The values below come from ChEMBL document CHEMBL4888484, “Replenishing the malaria drug discovery pipeline: Screening and hit evaluation of the MMV Hit Generation Library 1 (HGL1) against asexual blood stage Plasmodium falciparum ,using a nano luciferase reporter read-out” (2022).

The subject of data set [1] is Plasmodium falciparum. As to the kind of experiment: Hit confirmation in dose-response curve in NF54 nanoGlo assay, at 72h. The class given is functional, organism-based, Erythrocyte. On the set-up: timepoint 72 hour. The following applies: Plasmodium falciparum, NF54, Erythrocyte, 72 h.
Data set [2] has as its system Plasmodium falciparum. As to the kind of experiment: Hit confirmation in dose-response curve in NF54 pLDH assay, at 72h. The class given is functional, organism-based. The arrangement: timepoint 72 hour. The settings on record: NF54, Erythrocyte.
In data set [3] the test system is Plasmodium falciparum. As to the kind of experiment: Hit confirmation in dose-response curve in Dd2 pLDH assay, at 72h. The class given is functional, organism-based. The arrangement: timepoint 72 hour. The settings on record: Dd2, Erythrocyte.
Data set [4] relates to Plasmodium falciparum. As to the kind of experiment: Hit confirmation in dose-response curve in NF54 nanoGlo assay, at 12h. The class given is functional, organism-based, Erythrocyte. On the set-up: timepoint 12 hour. The settings on record: Plasmodium falciparum, NF54, Erythrocyte, 12 h.
Data set [5] is described as follows: Hit confirmation in dose-response curve in HepG2 cytotoxicity assay, at 72h. The class given is toxicity, cell-based. The arrangement: timepoint 72 hour. The following applies: human, HepG2 cells.

Bounds are passed on as bounds.

In general, IC50 refers to the concentration needed to halve the response being measured. High values mean weaker potency, low ones greater potency. For the compound `COc1cccc(N2C(=O)C[C@]3(CC3(c3ccccc3)c3ccccc3)C2=O)c1`, the IC50 in the data set with Plasmodium falciparum [1] is 4.07 µM; in the data set on Plasmodium falciparum [2], over 10 µM; in the data set on Plasmodium falciparum [3], over 10 µM; with Plasmodium falciparum [4] it was 0.832 µM. Further, the half-inhibitory concentration (IC50) at 72 h in data set [5] is over 10 µM.
`CNC(=O)[C@@H]1C[C@H](NCc2cc(OC)c(OC)c(OC)c2)CN1CC(c1ccccc1)c1ccccc1`: the IC50 was 2.14 µM in the data set with Plasmodium falciparum [1], 3.63 µM in the data set on Plasmodium falciparum [2], 2.82 µM in the data set on Plasmodium falciparum [3] and 3.63 µM in the data set on Plasmodium falciparum [4]. The compound further displayed an IC50 at 72 h in data set [5] of over 10 µM.
On to `C[C@H]1CCC[C@@H](NCCc2ccccc2)CCC/C=C/c2cc(O)cc(O)c2C(=O)O1`, for which the IC50 in the data set with Plasmodium falciparum [1] was found to be 0.759 µM; in the data set with Plasmodium falciparum [2], 2.95 µM; in the data set on Plasmodium falciparum [3] it was 2.29 µM; in the data set with Plasmodium falciparum [4], 8.51 µM. Further, in data set [5], the concentration for half-maximal inhibition (IC50) at 72 h is over 10 µM.
For `O=S(=O)(c1ccc(F)c(Cl)c1)N1CC[C@H](Oc2ccncc2Cl)C1`, in that order: 1.86 µM, 7.59 µM, 2.69 µM, 3.24 µM and over 10 µM.
In the case of `C[n+]1ccc(-c2ncc(-c3ccccc3)o2)c2ccccc21`, the IC50 with Plasmodium falciparum [1] was determined as 0.759 µM; in the data set with Plasmodium falciparum [2], 1.41 µM; with Plasmodium falciparum [3] it was 1.51 µM; with Plasmodium falciparum [4], 6.17 µM. This compound showed a half-inhibitory concentration (IC50) at 72 h in data set [5] of over 10 µM.
For `COc1cccc(NC(=O)Cn2c(C)ccc(NS(=O)(=O)c3ccc(C)cc3)c2=O)c1`, in that order: 3.24 µM, 7.94 µM, 3.63 µM, 9.12 µM and over 10 µM.
The corresponding values for `CC(C)c1cc(=O)[nH]c(-n2nc(C3CC3)cc2NC(=O)c2ccc(F)cc2)n1` are 0.708 µM, 6.46 µM, 2.82 µM, over 10 µM and 10 µM.
For `CCOC(=O)C1CCC(CN(Cc2ccc(OC)cc2)S(=O)(=O)c2cc(C(=O)Nc3ccc(OCC)cc3)ccc2F)CC1` (stereo not given), the IC50 was 5.01 µM in the data set with Plasmodium falciparum [1], over 10 µM with Plasmodium falciparum [2], over 10 µM in the data set with Plasmodium falciparum [3] and 7.94 µM with Plasmodium falciparum [4]. For the same compound, the 50% inhibitory concentration (IC50) at 72 h in data set [5] is over 10 µM.
On to `CC(Oc1ccc2c(c1)C(c1ccccc1)N(Cc1ccccc1F)CC2)C(=O)NC1CC1` (stereo not given), for which the IC50 is 2.69 µM in the data set with Plasmodium falciparum [1], 7.59 µM in the data set with Plasmodium falciparum [2], 3.47 µM in the data set with Plasmodium falciparum [3] and over 10 µM with Plasmodium falciparum [4]. Moreover, the IC50 at 72 h in data set [5] is over 10 µM.
As to `NC(=O)C(NC(=O)c1cccc(Cl)c1)C(N)=O`, the IC50 in the data set on Plasmodium falciparum [1], in the data set on Plasmodium falciparum [2], in the data set with Plasmodium falciparum [3] and with Plasmodium falciparum [4] was over 10 µM in each case. In data set [5], this compound returned an IC50 at 72 h of over 10 µM.
Consider `Cc1cccc(-c2nc(C[N+]3(Cc4nc(-c5cccc(C)c5)oc4C)CCCC3)c(C)o2)c1`, for which the half-inhibitory concentration (IC50) in the data set on Plasmodium falciparum [1] was 2.82 µM; with Plasmodium falciparum [2], 4.79 µM; in the data set on Plasmodium falciparum [3] it was 3.39 µM; with Plasmodium falciparum [4] it was over 10 µM. In data set [5], this compound had an IC50 at 72 h of over 10 µM.
On to `Cc1ccccc1C(=O)Cc1ncc[nH]1`, for which the IC50 came out at 2.29 µM in the data set with Plasmodium falciparum [1], 5.75 µM with Plasmodium falciparum [2], 3.89 µM with Plasmodium falciparum [3] and 4.9 µM with Plasmodium falciparum [4]. This compound also registered an IC50 at 72 h in data set [5] of over 10 µM.
For `CCOC(=O)CCn1cc(F)c(=O)[nH]c1=O`, in that order: 0.0269 µM, 0.0708 µM, over 10 µM, over 10 µM and over 10 µM.
The corresponding values for `COc1ccc(CCNC(=O)C2CCN(c3nccn4nc5c(c34)CCCC5)CC2)cc1OC` are 4.07 µM, over 10 µM, over 10 µM, 8.91 µM and over 10 µM.
Regarding `CCOC1CC(NC2CC(c3ccc(F)cc3)C2)C12CCC2` (stereo not given), the IC50 was determined as 5.01 µM in the data set on Plasmodium falciparum [1], 3.63 µM in the data set with Plasmodium falciparum [2], 2.63 µM in the data set on Plasmodium falciparum [3] and 6.31 µM in the data set with Plasmodium falciparum [4]. This compound displayed a half-maximal inhibitory concentration (IC50) at 72 h in data set [5] of over 10 µM.
Turning to `CCc1cc(N2C[C@@H]3NC(=O)CN(C)Cc4ccc(OC)c(c4)Oc4cccc(c4)CO[C@H]3C2)nc(N(C)C)n1`, the IC50 in the data set with Plasmodium falciparum [1] is 2.04 µM; with Plasmodium falciparum [2], 3.47 µM; in the data set with Plasmodium falciparum [3], 3.47 µM; in the data set with Plasmodium falciparum [4], 4.79 µM. The compound further displayed an IC50 at 72 h in data set [5] of over 10 µM.
`CCC(=O)N1CCc2sc(S(=O)(=O)N3CCN(c4cc(C)ccc4C)CC3)cc2C1`: the IC50 with Plasmodium falciparum [1] was 5.89 µM; in the data set on Plasmodium falciparum [2] it was over 10 µM; with Plasmodium falciparum [3] it was over 10 µM; with Plasmodium falciparum [4], over 10 µM. In data set [5], this compound came in with an IC50 at 72 h of over 10 µM.
Regarding `CCn1ncc(CN2CC[C@@H]3C(=O)NCCCCCCN(Cc4ccncc4)[C@@H]3C2)c1C`, the IC50 with Plasmodium falciparum [1] was 3.72 µM; in the data set with Plasmodium falciparum [2], 1.26 µM; in the data set on Plasmodium falciparum [3], 3.63 µM; in the data set with Plasmodium falciparum [4], over 10 µM. In addition, the IC50 at 72 h in data set [5] is over 10 µM.
As to `Cc1nn(-c2ccccc2)c2nc(Cc3ccccc3)nc(N3CCCN(C(=O)NC4CCCCC4)CC3)c12`, the IC50 with Plasmodium falciparum [1] was 5.01 µM; in the data set with Plasmodium falciparum [2], over 10 µM; in the data set with Plasmodium falciparum [3], over 10 µM; with Plasmodium falciparum [4] it was 2.75 µM. Besides, the IC50 at 72 h in data set [5] is over 10 µM.
In the case of `CC1(C)Cc2nc3ccccc3c(NCc3ccccc3)c2[C@@H](O)C1`, the IC50 in the data set on Plasmodium falciparum [1] worked out at 2.34 µM; in the data set with Plasmodium falciparum [2], 3.98 µM; with Plasmodium falciparum [3], 2.63 µM; in the data set on Plasmodium falciparum [4], 4.37 µM. The same compound returned an IC50 at 72 h in data set [5] of over 10 µM.
For `CC[n+]1ccc(-c2ncc(-c3ccc(C(C)(C)C)cc3)o2)cc1`, in that order: 0.589 µM, 0.182 µM, 0.417 µM, over 10 µM and over 10 µM.
The corresponding values for `CCNc1nc(C)cc(Nc2ccc(NS(=O)(=O)c3c(C)noc3C)cc2)n1` are 2.69 µM, 3.47 µM, 2.51 µM, 5.01 µM and over 10 µM.
As to `CCCOc1ccc(Nc2cc(C)nc3ccc(Cl)cc23)cc1`, the IC50 in the data set on Plasmodium falciparum [1] was 2.88 µM; in the data set with Plasmodium falciparum [2], 7.08 µM; in the data set on Plasmodium falciparum [3], 3.24 µM; in the data set on Plasmodium falciparum [4], over 10 µM. In addition, in data set [5], the IC50 at 72 h was over 10 µM.
Turning to `COc1cccc(-c2nn(-c3nc(-c4ccccc4)cc(C(F)(F)F)n3)c(-c3cccc(OC)c3)c2Cl)c1`, the IC50 in the data set on Plasmodium falciparum [1] was 6.17 µM; with Plasmodium falciparum [2] it was 8.32 µM; in the data set on Plasmodium falciparum [3], over 10 µM; in the data set with Plasmodium falciparum [4], over 10 µM. Further, in data set [5], the half-maximal inhibitory concentration (IC50) at 72 h was over 10 µM.
Take `CC[C@H]1CN2C=NC(N3CCN(C(=O)Nc4cc(F)cc(F)c4)CC3)=CC2=N1`: the IC50 with Plasmodium falciparum [1] was 2.82 µM; in the data set on Plasmodium falciparum [2], 1.26 µM; in the data set with Plasmodium falciparum [3] it was 3.39 µM; with Plasmodium falciparum [4], over 10 µM. This compound also gave an IC50 at 72 h in data set [5] of over 10 µM.
On to `Cc1cc(N2CC(OCc3ccccc3)C2)nc(Nc2cccc(O)c2)n1`, for which the IC50 in the data set with Plasmodium falciparum [1] was 1.38 µM; in the data set on Plasmodium falciparum [2] it was 2.63 µM; in the data set with Plasmodium falciparum [3], 1.45 µM; in the data set with Plasmodium falciparum [4], 2.88 µM. In data set [5], this compound displayed an IC50 at 72 h of over 10 µM.
For `Nc1nc(C2CC(N)C2)cc(N2CCC(Oc3ccccc3Cl)CC2)n1` (stereo not given), in that order: 1.82 µM, 4.07 µM, 3.24 µM, 3.16 µM and over 10 µM.
As to `CCn1cc(-c2nc(-c3ccccc3C)no2)c(=O)c2cc(F)c(N3CCOCC3)cc21`, the IC50 is 3.55 µM in the data set on Plasmodium falciparum [1], 7.08 µM in the data set with Plasmodium falciparum [2], 4.9 µM in the data set with Plasmodium falciparum [3] and over 10 µM in the data set on Plasmodium falciparum [4]. For the same compound, in data set [5], the IC50 at 72 h was over 10 µM.
For `COc1cc(OC)cc(C(=O)Nc2ccc3nc(N4CCC(C)CC4)cc(C)c3c2)c1`, the IC50 is 3.16 µM in the data set with Plasmodium falciparum [1], over 10 µM in the data set with Plasmodium falciparum [2], 5.01 µM in the data set with Plasmodium falciparum [3] and 6.76 µM in the data set with Plasmodium falciparum [4]. Also, the IC50 at 72 h in data set [5] is over 10 µM.
Consider `O=C(c1ccccc1)c1cc(Cl)ccc1NC(=O)[C@H]1CC(=O)N(c2ccc(F)cc2)C1`, for which the IC50 with Plasmodium falciparum [1] was 2.24 µM; in the data set with Plasmodium falciparum [2] it was 3.39 µM; in the data set with Plasmodium falciparum [3], 4.17 µM; in the data set with Plasmodium falciparum [4] it was 4.37 µM. The IC50 at 72 h in data set [5] was over 10 µM.
For `Cc1ccc(N2C(=O)c3ccccc3[C@@H]2c2c[nH]c3ccccc23)cc1`, in that order: 2.63 µM, 7.41 µM, 6.92 µM, 5.5 µM and over 10 µM.
For `CCOc1ccc2ccccc2c1C(=O)Nc1cc(C)nn1-c1nc2c(c(=O)[nH]1)CCC2`, in that order: 0.589 µM, 2 µM, 2.09 µM, over 10 µM and over 10 µM.
For `COc1ccc(CCNc2nc(-c3ccc(OC)cc3F)c3c(N)n(-c4ccc(Cl)cc4)nc3n2)cc1`, in that order: 3.55 µM, over 10 µM, 6.61 µM, 4.9 µM and over 10 µM.
Turning to `COc1ccc(C(=O)N(C(=O)c2ccc(OC)cc2)c2c3c(nc4ccccc24)CCCC3)cc1`, the half-inhibitory concentration (IC50) amounted to 2.29 µM in the data set with Plasmodium falciparum [1], 4.9 µM in the data set on Plasmodium falciparum [2], 3.89 µM with Plasmodium falciparum [3] and 3.24 µM with Plasmodium falciparum [4]. The compound further returned an IC50 at 72 h in data set [5] of over 10 µM.
The corresponding values for `Cc1n(CC(=O)c2ccccc2)c2ccccc2[n+]1CC(=O)c1ccccc1` are 1.05 µM, 1.55 µM, 1.62 µM, over 10 µM and over 10 µM.
For `Cc1cc(NC(=O)c2ccccn2)n(-c2nc3ccccc3o2)n1`, in that order: 0.457 µM, 3.63 µM, 3.16 µM, over 10 µM and over 10 µM.
